This note sets out measurements from a melting point compilation (Tetko et al.; mined from patent text by program, amines drawn as free bases though some values may be those of a salt).

In the case of `COCC1CN(c2ccc(C3CCC(OC(=O)c4ccccc4)CC3)cc2)C(=O)O1` (racemic), the melting point – broadly, the temperature of the solid-liquid transition – was 104 to 105 °C.
As to `CCC(C)(C)OC(=O)NC(C)(Cc1c[nH]c2ccccc12)C(=O)NCCc1cccs1` (stereo unspecified), the melting point lay in the range of 95 to 98 °C.
The same measure for `COc1cc(N(C)C(C)C)ccc1CN1C(=O)C(C)(c2ccccc2Cl)c2cc(Cl)ccc21` (stereo unspecified): 156 °C; for `COc1cccc(OC(=O)c2ncn3c2[C@@H]2CCCN2C(=O)c2c(Cl)cccc2-3)c1`: 184 to 185 °C.
For `COc1ccc2c(-c3ccccc3)nc(=NO)c(=O)n(C)c2c1` the value was 206 to 207 °C; for `COC(=O)C1CSC(=O)C1` (stereo unspecified), 33 to 35 °C; for `CC(O)CCc1ccc2c(c1)Cc1ccccc1-2` (stereo unspecified), 120 to 121 °C.
The same measure for `CC(C(=O)O)c1cccc(N)c1` (stereo unspecified): 98 to 100 °C; for `COc1ccc(CNC(=S)NNC(=O)C(N)=O)cc1`: 185 to 190 °C.
As for `CC[Si](C#CC1(COCc2ccccc2)OC(n2ccc(=O)[nH]c2=O)C(O)C1OCc1ccccc1)(CC)CC` (stereo unspecified), the melting point was 119 to 120 °C.
The same measure for `O=C(CCl)Nc1ccc2c(c1NC(=O)C1CCCCC1)C(=O)c1ccccc1C2=O`: 216 to 217 °C; for `COC(=O)c1cc(NS(C)(=O)=O)ccc1F`: 135 to 137 °C.
For `CCOCCOc1c(C)cc(Oc2ccc3c(c2)C=C(C(=O)Nc2ccc(CN(C)C4CCOCC4)cc2)CCS3(=O)=O)cc1C` the value was 111 to 113 °C; for `COc1ccc2cc3[nH]cc(C#N)c(=O)c3cc2c1`, more than 260 °C; for `O=C1c2ccc(-c3ccccc3)cc2CC1Br` (stereo unspecified), 99 to 100 °C.
The same measure for `CCCCc1ncc(CNC(Cc2ccccc2)C(=O)O)n1Cc1ccccc1Cl` (stereo unspecified): 141 to 143 °C; for `O=C1CN=C(c2ccccc2Cl)c2ccsc2N1`: 221 to 223 °C.
Turning to `CCCc1nc2cnc3cc(OCC(=O)N4CCOCC4)ccc3c2s1`, the melting point was 133 to 136 °C.
The same measure for `COc1ccc2c(c1)CCC1=C2CCC2(CC(C)C)C(=O)CC=C12` (stereo unspecified): 57 to 60 °C; for `O=C(NC1(C2CC2)CC1)c1c(NC(=O)c2cc(C(F)(F)F)nn2-c2ncccc2Cl)ccc2cn[nH]c12`: 224 to 227 °C; for `C=COCCONC(=O)c1cc(Cl)c(F)c(F)c1Nc1ccc(I)cc1F`: 119 to 120 °C.
Molecule `Cc1ccc(OCC(O)CNC(C)C)c([N+](=O)[O-])c1[N+](=O)[O-]` (stereo unspecified) registered a melting point of 122 to 124 °C.
For `CCCCCCCCCCCCCCCCCCOc1ccc(C(=O)C(=O)OCC)cc1` the value was 46 to 48 °C; for `CC(C)n1c(=O)ccc2cnc(S(C)=O)nc21` (stereo unspecified), 132 to 133 °C.
For `CC(=O)O[C@H]1CC[C@H](CCCCCC(=O)O)CC1` the value was 82 to 86 °C; for `Fc1cc(F)c2nc(CCC#Cc3ccccn3)cn2c1`, 130 to 131 °C.
For `O=c1[nH]c(-c2ccccc2Br)nc2c1CCCC2` the value was 193 °C.
Take `CNc1ccc(C2OC(C)(C)N=C2c2ccccc2)cc1` (stereo unspecified): the melting point was in the range of 138 to 139 °C.
For `COC(=O)C(C)=C(C)C(=O)N(C(=O)c1ccccc1)c1cc(OC)c(Cl)cc1F` the value was 142 to 145 °C; for `CC(C)(C)c1cc(CNn2ccnc2)cc(C(C)(C)C)c1O`, 171 to 174 °C; for `CNC(=O)c1cc(NC(=O)c2ccc(C)c(Nc3nccc(N4C=CC=NC4)n3)c2)cc(N2CCOCC2)c1`, 153 to 156 °C.
The same measure for `O=C(/C=C/C=C/c1ccccc1)NCCCOc1ccc(CC(=O)NO)cc1`: 198 to 201 °C; for `COC(=O)c1cc(-c2nc(COc3ccc(COc4nn(-c5ccccc5)cc4C=O)cc3OC)c(C)o2)ccc1OS(C)(=O)=O`: 136 to 137 °C.
For `CCOC(=O)CNC(=O)c1nnc2ccc(Cl)nn12` the value was 133 to 134 °C; for `OCc1ccc(/C=C/c2ccncc2)nc1`, more than 199 °C; for `CN1CC=C(c2c[nH]c3ccc(Sc4ccccc4)cc23)CC1`, 225 to 228 °C.
Take `COc1cccc(CC(=O)O)c1OCCCc1cc(C(C)C)nn1Cc1ccc(Cl)cc1Cl`: the melting point was 101 to 102 °C.
The same measure for `CCCCn1c(=O)c2nn(S(=O)(=O)c3cccc(C(F)(F)F)c3)cc2n(CCCC)c1=O`: 163 to 165 °C; for `COc1ccc(-c2nc(C(C)C)sc2-c2ccc(OC)cc2)cc1`: 61 to 65 °C; for `Cn1c2cc(Cl)cc(Cl)c2c2cc(C(=O)N3CCOCC3)sc21`: 224 to 226 °C.
Molecule `CC(=O)c1ccc(-c2nccn2C)cc1` showed a melting point of 88 to 93 °C.
The same measure for `CCCC(=O)c1ccc(C(CCC)CC(=O)Nc2cc(C(N)=O)ccc2C(C)(C)C)c(OC)c1` (stereo unspecified): 193 to 194 °C.
For `Brc1cnc(Sc2ncccn2)nc1` the value was 178 to 180 °C.
For `O=C(O)CN(CCN(CC(=O)O)C(COCc1ccccc1)C(=O)O)C(COCc1ccccc1)C(=O)O` (stereo unspecified) the value was 177 °C.
As for `CNc1nc(N)nc(NC)n1`, the melting point was determined as 291 °C.
The same measure for `CCOC(=O)CCCCCOc1ccc(Nc2ccncc2)cc1`: 104 to 106 °C; for `NC(=O)CC(CC(N)=O)c1cccc(Cl)c1Cl`: 194 to 196 °C.
Regarding `Cc1ncsc1CCOc1ccc(NC(=O)c2cc(F)cc(N3CCCCC3)c2)c2ccccc12`, the melting point was 221 to 222 °C.
For `CSc1ccc(COc2c(C)c(C)c3c(c2C)C(c2ccc(C(C)C)cc2)C(C)(C)O3)cc1` (stereo unspecified), the melting point was 118 to 120 °C.
The same measure for `CCOC(=O)c1ccc(OCCCCCCCCCCCCCCCOc2ccc(Cl)cc2)cc1`: 84 to 85 °C; for `COC(=O)NC1=NCC(c2ccccc2Br)CN1` (stereo unspecified): 213 to 215 °C.
For `COC(C)(OC)OC(=O)N[C@@H](Cc1cn(S(=O)(=O)c2ccc(C)cc2)cn1)C(=O)O` the value was 120 °C.
In turn, `Cc1ccc(-c2ccc3c(c2)C=C(C(=O)N[C@H]2CC[C@H](CN(C)C4CCOCC4)CC2)CCO3)cc1` came in with a melting point of 144 to 146 °C.
Take `CCCCNCC1CCn2c(nc3ccccc32)S1` (stereo unspecified): the melting point was in the range of 122 to 124 °C.
For `COc1ccc(C2Sc3cccc4cccc(c34)N(CCN(C)C)C(=O)C2O)cc1` (stereo unspecified) the value was 121 to 122 °C.
For `COC(=O)COc1ccc2cc(CNC(=O)c3cc(-c4ccc(Cl)cc4)oc3C)ccc2c1` the value was 168 to 169 °C; for `COC(=O)C1(c2ccccc2)CCN(CCNC(=O)N2C(=O)COCC2c2ccc(F)c(F)c2)CC1` (stereo unspecified), 113 to 117 °C; for `O=C1c2ccccc2-c2c1c1c(c(=O)n2CCCCNS(=O)(=O)c2ccccc2)C=CCC1`, 184 to 186 °C.
The same measure for `CCCN(C(=O)OCC(C)C)C1Cc2ccc(C3=NNC(=O)CC3)cc2C1` (stereo unspecified): 161 to 162 °C; for `COc1cccc(CCc2c(CCNC(=O)CCCCC(=O)NCCc3ccc(NS(C)(=O)=O)cc3)ccc(OC)c2OC)c1`: 157 to 159 °C; for `CN(C)c1nc(CSCCNC2=NS(=O)N=C2N)cs1` (stereo unspecified): 116 to 122 °C.
`COC(=O)C(C)(C)N(OC(C)(C)C#N)C(C)(C)C`: the melting point was in the range of 78 to 85 °C.
For `CC(C)(C)OC(=O)N1CCC(C2=C(C#N)C(c3cccc(C#N)c3Br)c3c[nH]nc3N2)CC1` (stereo unspecified) the value was more than 270 °C.
The same measure for `CNC(CO)CCOc1cccc2ccccc12` (stereo unspecified): 101 to 102 °C; for `CCONC(=O)c1cc(NCC2CCN(Cc3ccccc3)CC2)ccn1`: 125 to 130 °C.
The same measure for `N#Cc1cccc(OCc2ccccc2)c1[N+](=O)[O-]`: 94 to 95 °C.
In turn, `Cc1oc(-c2ccco2)nc1CCc1ccc(CCCC2OC(=O)NC2=O)cc1` (stereo unspecified) came in with a melting point of 123 to 124 °C.
For `Cc1cccc(C)c1NC(=O)c1ccc(NC(=O)CN(C)C)cc1` the value was 276 to 278 °C.
The same measure for `COC[C@@H]1CCCN1S(=O)(=O)c1ccc(Cl)c(COc2cccc3c(-n4ccnc4)cc(C)nc23)c1Cl`: 66 °C.
The same measure for `CN(c1ccccc1)c1nc(N(C)c2ccccc2)c2ccsc2n1`: 85 to 87 °C; for `CCOC(=O)C1=C(C)NC(C)=C(C(=O)OCC)C1c1ccccc1/C=C(\C)C(=O)O`: 205 to 207 °C; for `CC(=O)Nc1cccc(C(=O)NC(C)(C)C)c1`: 194 to 195 °C.
Take `O=C(Nc1cc(C(F)(F)F)nc(C(F)(F)F)c1)C(=O)Nc1cc(C(F)(F)F)nc(C(F)(F)F)c1`: the melting point lay within 271 to 272 °C.
The molecule `COc1ccc2c(c1OCc1ccccc1)CC(C(=O)O)N(C(=O)C(c1ccccc1)c1ccccc1)C2` (racemic) showed a melting point of 157 to 159 °C.
For `Cc1nc2cccc3n(CCCNS(=O)(=O)CC(F)(F)F)c(=O)c1n23` the value was 157 to 158 °C; for `CC(=O)OCC(=O)C1(OC(C)=S)CCC2C3CC(C)C4=CC(=O)C=CC4(C)C3C(O)CC21C` (stereo unspecified), 149 to 151 °C.
The same measure for `Cn1cc(C2=C(c3ccccc3)C(=O)NC2=O)c2ccccc21`: 230 to 232 °C.
For `CCCOc1cc(C(=O)O)cc([N+](=O)[O-])c1C(=O)c1ccccc1` the value was 160 to 162 °C; for `O=C1OC(CCCN2CCN(c3ccccn3)CC2)CN1c1ccccc1` (stereo unspecified), 123 to 125 °C.
With `Nc1c(S(=O)(=O)C(F)(F)F)c(-c2ncon2)nn1-c1c(Cl)cc(C(F)(F)F)cc1Cl`, the melting point fell in the range of 205 to 208 °C.
For `CCOC(=O)c1ncc2[nH]c3ccccc3c2c1CCOC` the value was 181 to 183 °C.
The same measure for `Fc1ccc(OCCN2CCC(CNc3nc4ccccc4s3)CC2)cc1`: 117 °C; for `CC(C)C[C@H](NC(=O)c1cccs1)C(=O)N[C@@H](C(C)C)[C@@H](O)c1c(-c2ccccc2)c1=O`: 171 to 172 °C; for `CC(C)(O)C#Cc1ncn2c1[C@@H]1CCCN1C(=O)c1c(Cl)cccc1-2`: 234 to 235 °C.
`CC(=O)c1ccc(C(=O)Nc2ccc(-n3nc(C(F)(F)F)cc3C(F)(F)F)cc2)cc1` had a melting point of 203 to 204 °C.
Molecule `Nc1cnc2c(c1)CCCC2` yielded a melting point of 97 to 98 °C.
